Tests used:
[1] = test system: primary tumors; test: in vitro chemosensitivity assay of primary tumors (ATP-measurement, AUC of dose-response curve); format: cell-based; details: 6 days of incubation; for response (chemosensitivity) of tumors of the basal subtype: basal molecular subtype (MLPH<2000); for response (chemosensitivity) of tumors of the luminal A subtype: luminal A molecular subtype (ESR1 >6000, PGR >160)
Protocol: In a second step for the identification of an optimal predictive gene signature in vitro chemosensitivity assays of primary tumors are performed to determine the response of a tumor towards a single chemotherapeutic agent. In said in vitro chemosensitivity assays the primary tumors were cultivated in different assays with increasing concentrations of the agents. After 6 days of incubation the vitality of the tumor cells were determined with an ATP-measurement. Hereby, the growing inhibition for the different agent concentrations could be determined and a dose-response curve could be provided. For each tumor the Area under the dose-response curve (AUC) could be determined for the different agents. The AUC is used to evaluate the response of a tumor towards a chemotherapeutic agent. The bigger the AUC, the more sensitive is the tumor towards the agent. The tumor samples were classified according to their sensitivity towards the agents into three classes (resistant, intermediate, sensitive) via the tertiles of the AUC arrangement.

[2] = test system: NCI 60 cell lines; test: NCI 60 cell line chemosensitivity (GI-50); format: cell-based; details: AKR1C1 cut-off score 5000
Protocol: In this study several tumor cell lines of different cancer types were tested for their sensitivity towards several chemotherapeutic agents. The GI-50 value (concentration, where half of the tumor cells are inhibited regarding growing) for Paclitaxel was used to test, whether AKR1C1 is appropriate for a prediction of a Paclitaxel sensitivity in cell lines. […] The defined cut-off score (5000) allowed a significant classification (p=0.0049) of the resistant and sensitive tumor cells of the NCI 60 cell lines (FIG. 14).
NCI 60 cell lines were classified with the marker gene AKR1C1 (cut-off score 5000). Onto the ordinate the concentration of Palitaxel is depicted, which is needed for the inhibition of half of the cells (GI-50). Altogether for Paclitaxel 54 GI-50 values for the cell lines were provided.

Structure (SMILES): COc1cccc2c1C(=O)c1c(O)c3c(c(O)c1C2=O)C[C@@](O)(C(=O)CO)C[C@@H]3O[C@H]1C[C@H](N)[C@@H](O)[C@H](C)O1 [Epirubicin]
- response (chemosensitivity) of tumors of the basal subtype [1]: particularly sensitive
- response (chemosensitivity) of tumors of the luminal A subtype [1]: resistant

Structure (SMILES): CC(=O)O[C@H]1C(=O)[C@@]2(C)[C@H]([C@H](OC(=O)c3ccccc3)[C@]3(O)C[C@H](OC(=O)[C@H](O)[C@@H](NC(=O)c4ccccc4)c4ccccc4)C(C)=C1C3(C)C)[C@]1(OC(C)=O)CO[C@@H]1C[C@@H]2O [Paclitaxel]
- response (chemosensitivity) of tumors of the basal subtype [1]: particularly sensitive
- response (chemosensitivity) of tumors of the luminal A subtype [1]: resistant
- sensitivity (GI-50) of cell lines with high expression of AKR1C1 [2]: mainly are resistant

Source: patent US20110143946A1, “Method for predicting the response of a tumor in a patient suffering from or at risk of developing recurrent gynecologic cancer towards a chemotherapeutic agent” (SIEMENS HEALTHCARE DIAGNOSTICS INC., priority 2007, published 2011)
